In patent publication US20260327232A1, “Heteroaryl Compounds as Ligand Directed Degraders of IRAK4” (Celgene Corporation, priority 2023, published 2026):
Structures can show the parent of a compound that is named as a salt.

Key:
IRAK4 [1] = biological target: T1, IRAK4 (Homo sapiens, UniProt Q9NWZ3); test: ALE THP1 HTRF (IRAK4 in THP1 cell lysates, Homogeneous Time Resolved Fluorescence); assay type: cell-based; design: THP1 Homogeneous Time Resolved Fluorescence (ALE THP1 HTRF) Procedure; endogenous in cells; host or cells: THP1; settings: THP1 cells
T1 sequence (Q9NWZ3 1-460): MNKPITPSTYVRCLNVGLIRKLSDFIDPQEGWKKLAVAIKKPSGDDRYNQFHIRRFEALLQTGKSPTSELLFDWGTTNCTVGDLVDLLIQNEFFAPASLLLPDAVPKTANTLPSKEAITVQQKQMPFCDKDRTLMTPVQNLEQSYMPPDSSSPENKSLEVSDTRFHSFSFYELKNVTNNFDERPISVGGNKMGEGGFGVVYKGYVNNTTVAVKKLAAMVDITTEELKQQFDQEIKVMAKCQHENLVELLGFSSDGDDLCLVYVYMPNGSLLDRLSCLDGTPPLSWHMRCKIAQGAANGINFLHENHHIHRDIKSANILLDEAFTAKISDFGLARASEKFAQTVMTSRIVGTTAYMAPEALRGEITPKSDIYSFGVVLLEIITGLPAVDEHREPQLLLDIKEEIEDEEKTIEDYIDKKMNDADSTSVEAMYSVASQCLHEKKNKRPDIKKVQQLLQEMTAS
Experimental: Cell culture media was prepared in a tissue culture hood in a sterile environment by adding 10% FBS and 1% Penicillin Streptomycin to 500 mL no phenol red RPMI 1640 media. The media was filtered through a Nalgene Bottle Top Filter and stored at 4° C.
For Homogenous Time Resolved Fluorescence (HTRF) assays, a Cisbio HTRF kit was used, which included: Lysis Buffer #1 4×, Blocking Reagent #3 100×, 20× Antibody 1 (Anti-IRAK4 d2), 20× Antibody 2 (Anti-IRAK4 k), and Detection Buffer.
4× Lysis Buffer was stored at 4° C. For use as 1× Lysis buffer, the 4× solution was diluted with de-ionized water (distilled water, Gibco Cat. #15230279) and 100× Blocking Reagent in a 1:3:0.04 volume ratio.
20× Antibody Solution aliquots were stored in −80° C. and the Detection Buffer was stored in 4° C. For use as a 1× Antibody Solution, the 20× Antibody Solution aliquot was diluted with Detection Buffer in a 1:19 volume ratio.
Cells were lysed at room temperature for 45 min with shaking. A BCA protein assay was performed and normalization was conducted to the desired total protein concentration with 1× lysis buffer. Next, 1× Antibody Solutions were prepared by adding 380 μL Detection Buffer to 20 μL 20× Antibody Solution aliquots and mixing well. 1× Antibody Solutions were combined 1:1 and briefly vortexed. For control wells, 20 μL 1× anti IRAK4-k Antibody Solution was saved. The 384-well plate (ProxiPlate-384 Plus, Perkin Elmer Cat. #6008289) was loaded by adding 4 μL of the mixed Antibody Solution to empty wells using a single channel repeater. Using a multi-channel repeater, 16 μL lysate was added per well, and any bubbles that were formed were popped with 20 μL pipette tips and Kimwipe edges. In column 10, triplicates of each control was prepared. In wells A10, B10, and C10, buffer control was prepared by adding 16 μL Lysis Buffer and 4 μL Detection Buffer. In wells D10, E10, and F10, cryptate control was prepared by adding 16 μL Lysis Buffer, 2 μL Detection Buffer, and 2 μL 1× anti IRAK4-k Antibody Solution. In wells G10, H10, and 110, a negative control was prepared by adding 16 μL Lysis Buffer and 4 μL mixed Antibody Solution. The plate was sealed with a clear seal and covered with an aluminum lid. The plate was spun down at 800 g for 5 min and incubated in the dark at room temperature overnight. The next day, the plate was spun down at 800 g for 5 min. The samples were analyzed by a plate reader (Envision, PerkinElmer) using the Desnor 384 HTRF program.

IRAK4 [2] = biological target: T1, IRAK4; test: IRAK4 PhosphoSens Biochemical Assay (BIOCHEM); settings: 200 μM ATP, 10 μM peptide substrate AQT0326, 1 nM IRAK4, room temperature, 240 minutes

Row | EC50 (IRAK4 [1]) [nM] | IC50 (IRAK4 [2]) [nM] | Compound
1 | > 10000 | 0.5 | Cn1nc(C2CCC(=O)NC2=O)c2ccc(NC3CCN(C(=O)[C@H]4CC[C@H](n5cc(NC(=O)c6cnn7ccc(N8C[C@H](N)C[C@@H](F)C8)nc67)c(C(F)F)n5)CC4)CC3)cc21 (some centres unmarked) [P-1]
2 | 5.6 | < 0.5 | Cn1nc(C2CCC(=O)NC2=O)c2ccc(N3CCC(NC(=O)[C@H]4CC[C@H](n5cc(NC(=O)c6cnn7ccc(N8C[C@H](N)C[C@@H](F)C8)nc67)c(C(F)F)n5)CC4)CC3)cc21 (stereo partly drawn) [P-4, 5-((3R,5R)-3-amino-5-fluoropiperidin-1-yl)-N-(3-(difluoromethyl)-1-((1r,4r)-4-((1-(3-(2,6-dioxopiperidin-3-yl)-1-methyl-1H-indazol-6-yl)piperidin-4-yl)carbamoyl)cyclohexyl)-1H-pyrazol-4-yl)pyrazolo[1,5-a]pyrimidine-3-carboxamide hydrochloride]
3 | 5 | < 0.5 | Cn1nc(C2CCC(=O)NC2=O)c2ccc(N3CCC(NC[C@H]4CC[C@H](n5cc(NC(=O)c6cnn7ccc(N8C[C@H](N)C[C@@H](F)C8)nc67)c(C(F)F)n5)CC4)CC3)cc21 (stereo partly drawn) [P-5, 5-((3R,5R)-3-Amino-5-fluoropiperidin-1-yl)-N-(3-(difluoromethyl)-1-((1r,4r)-4-(((1-(3-(2,6-dioxopiperidin-3-yl)-1-methyl-1H-indazol-6-yl)piperidin-4-yl)amino)methyl)cyclohexyl)-1H-pyrazol-4-yl)pyrazolo[1,5-a]pyrimidine-3-carboxamide dihydrochloride]
4 | 5 | < 0.5 | Cn1nc(C2CCC(=O)NC2=O)c2cccc(N3CCC(NC(=O)[C@H]4CC[C@H](n5cc(NC(=O)c6cnn7ccc(N8C[C@H](N)C[C@@H](F)C8)nc67)c(C(F)F)n5)CC4)CC3)c21 (some centres unmarked) [P-6]
5 | 12 | < 0.5 | Cn1nc(C2CCC(=O)NC2=O)c2cccc(NC3CCN(CCC4CCC(n5cc(NC(=O)c6cnn7ccc(N8C[C@H](N)C[C@@H](F)C8)nc67)c(C(F)F)n5)CC4)CC3)c21 (stereo partly drawn) [P-7, N-[3-(difluoromethyl)-1-[4-[2-[4-[[3-(2,6-dioxo-3-piperidyl)-1-methyl-indazol-7-yl]amino]-1-piperidyl]ethyl]cyclohexyl]pyrazol-4-yl]-5-[(3R,5R)-3-amino-5-fluoro-1-piperidyl]pyrazolo[1,5-a]pyrimidine-3-carboxamide bis-HCl salt]
6 | 7 | < 0.5 | Cn1nc(C2CCC(=O)NC2=O)c2cccc(N3CCN(C[C@H]4CC[C@H](n5cc(NC(=O)c6cnn7ccc(N8C[C@H](N)C[C@@H](F)C8)nc67)c(C(F)F)n5)CC4)CC3)c21 (some centres unmarked) [P-8]
7 | 4 | < 0.5 | Cn1nc(C2CCC(=O)NC2=O)c2cccc(NC3CCN(C(=O)[C@H]4CC[C@H](n5cc(NC(=O)c6cnn7ccc(N8C[C@H](N)C[C@@H](F)C8)nc67)c(C(F)F)n5)CC4)CC3)c21 (stereo partly drawn) [P-9, 5-((3R,5R)-3-amino-5-fluoropiperidin-1-yl)-N-(3-(difluoromethyl)-1-((1r,4r)-4-(4-((3-(2,6-dioxopiperidin-3-yl)-1-methyl-1H-indazol-7-yl)amino)piperidine-1-carbonyl)cyclohexyl)-1H-pyrazol-4-yl)pyrazolo[1,5-a]pyrimidine-3-carboxamide hydrochloride]
8 | 14 | < 0.5 | Cn1nc(C2CCC(=O)NC2=O)c2ccc(N3CCN(CC[C@H]4CC[C@H](n5cc(NC(=O)c6cnn7ccc(N8C[C@H](N)C[C@@H](F)C8)nc67)c(C(F)F)n5)CC4)CC3)cc21 (some centres unmarked) [P-10]
9 | 17 | < 0.5 | Cn1nc(C2CCC(=O)NC2=O)c2cccc(N3CCN(CCC4CCC(n5cc(NC(=O)c6cnn7ccc(N8C[C@H](N)C[C@@H](F)C8)nc67)c(C(F)F)n5)CC4)CC3)c21 (some centres unmarked) [P-11]
10 | 6 | < 0.5 | Cn1nc(C2CCC(=O)NC2=O)c2ccc(NC3CC4(C3)CN(CC3CCC(n5cc(NC(=O)c6cnn7ccc(N8C[C@H](N)C[C@@H](F)C8)nc67)c(C(F)F)n5)CC3)C4)cc21 (some centres unmarked) [P-12]
11 | 1 | < 0.5 | Cn1nc(C2CCC(=O)NC2=O)c2ccc(NC3CN(C[C@H]4CC[C@H](n5cc(NC(=O)c6cnn7ccc(N8C[C@H](N)C[C@@H](F)C8)nc67)c(C(F)F)n5)CC4)C3)cc21 (some centres unmarked) [P-13]
12 | > 10000 | < 0.5 | Cn1nc(C2CCC(=O)NC2=O)c2ccc(N3CCN(C[C@H]4CC[C@H](n5cc(NC(=O)c6cnn7ccc(N8C[C@H](N)C[C@@H](F)C8)nc67)c(C(F)F)n5)CC4)CC3)cc21 (some centres unmarked) [P-14]
13 | 10 | < 0.5 | Cn1nc(C2CCC(=O)NC2=O)c2cccc(N3CCC(NC[C@H]4CC[C@H](n5cc(NC(=O)c6cnn7ccc(N8C[C@H](N)C[C@@H](F)C8)nc67)c(C(F)F)n5)CC4)CC3)c21 (some centres unmarked) [P-15]
14 | 5 | < 0.5 | Cn1nc(C2CCC(=O)NC2=O)c2ccc(NC3CCN(CC[C@H]4CC[C@H](n5cc(NC(=O)c6cnn7ccc(N8C[C@H](N)C[C@@H](F)C8)nc67)c(C(F)F)n5)CC4)CC3)cc21 (some centres unmarked) [P-16]
15 | 1 | < 0.5 | Cn1nc(C2CCC(=O)NC2=O)c2ccc(C(=O)N3CCN(C[C@H]4CC[C@H](n5cc(NC(=O)c6cnn7ccc(N8C[C@H](N)C[C@@H](F)C8)nc67)c(C(F)F)n5)CC4)CC3)cc21 (some centres unmarked) [P-17]
16 | 5 | < 0.5 | Cn1nc(C2CCC(=O)NC2=O)c2ccc(NC3CCN(CC4CCC(n5cc(NC(=O)c6cnn7ccc(N8C[C@H](N)C[C@H](F)C8)nc67)c(C(F)F)n5)CC4)CC3)cc21 (some centres unmarked) [P-19]
17 | 5 | < 0.5 | Cn1nc(C2CCC(=O)NC2=O)c2ccc(NC3CCN(C[C@H]4CC[C@H](n5cc(NC(=O)c6cnn7ccc(N8C[C@H](N)CC(F)(F)C8)nc67)c(C(F)F)n5)CC4)CC3)cc21 (some centres unmarked) [P-20]
18 | 5 | < 0.5 | Cn1nc(C2CCC(=O)NC2=O)c2ccc(N[C@@H]3CCN(CC4CCC(n5cc(NC(=O)c6cnn7ccc(N8C[C@H](N)C[C@@H](F)C8)nc67)c(C(F)F)n5)CC4)C[C@H]3F)cc21 (some centres unmarked) [P-22]
19 | 4 | < 0.5 | Cn1nc(C2CCC(=O)NC2=O)c2ccc(N[C@H]3CCN(C[C@H]4CC[C@H](n5cc(NC(=O)c6cnn7ccc(N8C[C@H](N)C[C@@H](F)C8)nc67)c(C(F)F)n5)CC4)C[C@H]3F)cc21 (some centres unmarked) [P-23]
20 | 11 | < 0.5 | Cn1nc(C2CCC(=O)NC2=O)c2ccc(OC3CCN(C[C@H]4CC[C@H](n5cc(NC(=O)c6cnn7ccc(N8C[C@H](N)C[C@@H](F)C8)nc67)c(C(F)F)n5)CC4)CC3)cc21 (some centres unmarked) [P-26]
21 | > 10000 | < 0.5 | CN(C[C@H]1CC[C@H](n2cc(NC(=O)c3cnn4ccc(N5CCOCC5)nc34)c(C(F)F)n2)CC1)C1CCN(c2ccc3c(C4CCC(=O)NC4=O)nn(C)c3c2)CC1 (some centres unmarked) [P-29, N-[3-(Difluoromethyl)-1-[4-[[[1-[3-(2,6-dioxo-3-piperidyl)-1-methyl-indazol-6-yl]-4-piperidyl]-methyl-amino]methyl]cyclohexyl]pyrazol-4-yl]-5-morpholino-pyrazolo[1,5-a]pyrimidine-3-carboxamide]
22 | 3 | < 0.5 | CN(c1ccc2c(C3CCC(=O)NC3=O)nn(C)c2c1)C1CCN(C[C@H]2CC[C@H](n3cc(NC(=O)c4cnn5ccc(N6C[C@H](N)C[C@@H](F)C6)nc45)c(C(F)F)n3)CC2)CC1 (some centres unmarked) [P-31]
23 | 1 | < 0.5 | CN(c1ccc2c(C3CCC(=O)NC3=O)nn(C)c2c1)C1CCN(C[C@H]2CC[C@H](n3cc(NC(=O)c4cnn5ccc(N6CCOCC6)nc45)c(C(F)F)n3)CC2)CC1 (some centres unmarked) [P-32]
24 | 3510 |  | Cc1ccc(Nc2ccn3ncc(C(=O)Nc4cn([C@H]5CC[C@H](CN(C)C6CCN(c7ccc8c(C9CCC(=O)NC9=O)nn(C)c8c7)CC6)CC5)nc4C(F)F)c3n2)cn1 (some centres unmarked) [P-48]
